Patent US8575147B2, “Spontaneously dispersible N-benzoyl staurosporine compositions” (Novartis AG, priority 1999, dated 2013)

Assay: Solubility of N-benzoyl-staurosporine in water, simulated gastric and intestinal fluids
Assay type: physicochemical
Method: U.S. Pat. No. 5,093,330 specifically discloses two tablet formulations based on starch/lactose mixtures in the presence of colloidal silica, talc and magnesium stearate (Examples 52 and 53) and a capsule formulation based on talc and colloidal silica (Example 54). […] We have found it to be very lipophilic and practically insoluble in water, in simulated gastric and in intestinal fluids (solubility<0.1 mg/L). In particular this exceptional low solubility of the active substance necessitated development of a non-conventional dosage form.

`CO[C@@H]1[C@H](N(C)C(=O)c2ccccc2)C[C@H]2O[C@]1(C)n1c3ccccc3c3c4c(c5c6ccccc6n2c5c31)C(=O)NC4` [N-benzoyl-staurosporine] showed a solubility of under 0.1 µg/mL.
